Test: Wetting angle (contact angle) of the API by goniometer
Format: physicochemical
Settings: advancing contact angle, water, 22° C., about 34% RH; accuracy about ±2°; ditosylate monohydrate
Procedure: Alternatively, the above described necessities can be complied with if the active pharmaceutical ingredient used in the preparation of the pharmaceutical composition has a low wetting angle (also: contact angle). The contact angle is a measure of the wettability, that is the lower the contact angle of a given substance, the better it's wettability. Preferably, the wetting angle is below 55°, preferably below 50° and most preferred below 47°. The wetting angle can be measured according to standard methods known in the art, e.g. by means of a goniometer. For this measurement 0.3 g of API is compressed using a KBr press (2000 kg for 2 minutes) to a moulding with a diameter of 1.25 cm. The sample is stored at 100% RH and placed on a glass frit that is kept in contact with water (Millipore quality) one hour prior to the measurement. The wetting angle is then measured on an OCA40, Dataphysics Instruments GmbH, Filderstadt, at 22° C. and about 34% RH at three different sample positions and at different drop sites (3-5 μl of water, Millipore quality) by a static measurement of advancing and receding contact angles via drop contour analysis using ellipse fit (SCA 20, Dataphysics Instruments GmbH, Filderstadt). The wetting angle is defined as the advancing contact angle. The accuracy of measurement is about ±2°.

Row | Substance | contact angle [°]
1 | Lapatinib ditosylate monohydrate [API used in examples 1 and 2] | 56
2 | Lapatinib ditosylate monohydrate [API used in examples 3 to 5] | 45
